Counter-ions that a name gives are not always drawn.
What was measured:
[1] = biological target: T1, MERTK (Homo sapiens, UniProt Q12866); assay: TR-FRET kinase activity assay, MERTK; type: biochemical; conditions: for IC50: TR-FRET activity assay, ATP at Km, 60 minutes, read-out: Mer IC50; for FLT3/Mer ratio (FLT3 IC50/Mer IC50): ratio of Mer to FLT3: FLT3 IC50/Mer IC50
T1 sequence (Q12866 21-999): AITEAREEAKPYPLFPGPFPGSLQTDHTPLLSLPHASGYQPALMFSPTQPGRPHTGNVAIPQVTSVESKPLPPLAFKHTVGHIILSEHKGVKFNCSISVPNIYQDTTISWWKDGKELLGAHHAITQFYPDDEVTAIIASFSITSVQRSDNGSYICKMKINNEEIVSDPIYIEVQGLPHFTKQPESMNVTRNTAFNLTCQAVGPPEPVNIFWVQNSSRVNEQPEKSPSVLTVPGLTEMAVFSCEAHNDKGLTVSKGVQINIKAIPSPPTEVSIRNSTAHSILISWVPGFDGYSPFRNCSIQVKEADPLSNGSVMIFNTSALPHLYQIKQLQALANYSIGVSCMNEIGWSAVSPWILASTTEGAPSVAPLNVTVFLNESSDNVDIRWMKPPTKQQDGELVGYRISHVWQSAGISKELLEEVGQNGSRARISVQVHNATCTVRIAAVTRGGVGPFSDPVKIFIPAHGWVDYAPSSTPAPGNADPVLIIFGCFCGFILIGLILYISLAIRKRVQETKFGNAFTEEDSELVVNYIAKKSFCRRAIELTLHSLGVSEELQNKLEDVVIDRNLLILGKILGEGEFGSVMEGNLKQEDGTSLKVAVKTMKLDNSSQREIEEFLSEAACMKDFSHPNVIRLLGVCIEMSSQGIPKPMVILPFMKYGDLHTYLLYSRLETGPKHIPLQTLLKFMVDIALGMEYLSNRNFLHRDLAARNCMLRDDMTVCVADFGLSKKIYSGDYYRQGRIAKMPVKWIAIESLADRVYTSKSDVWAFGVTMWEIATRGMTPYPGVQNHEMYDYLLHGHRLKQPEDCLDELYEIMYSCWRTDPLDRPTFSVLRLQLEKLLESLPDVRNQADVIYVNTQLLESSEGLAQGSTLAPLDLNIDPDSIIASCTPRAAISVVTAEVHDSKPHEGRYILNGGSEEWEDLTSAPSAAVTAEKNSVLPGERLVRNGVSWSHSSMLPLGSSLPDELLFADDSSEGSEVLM
Procedure, shortened: (§1)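 Recombinant human kinases, fluorescent peptide substrate, ATP at Km; 1 h RT, pH 7.5. EDTA-quenched, Eu antibody added, TR-FRET read; IC50 determined.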

[2] = biological target: T2, AXL (Homo sapiens, UniProt P30530); assay: TR-FRET kinase activity assay, AXL; type: biochemical; conditions: ATP at Km, 60 minutes
T2 sequence (P30530 26-894): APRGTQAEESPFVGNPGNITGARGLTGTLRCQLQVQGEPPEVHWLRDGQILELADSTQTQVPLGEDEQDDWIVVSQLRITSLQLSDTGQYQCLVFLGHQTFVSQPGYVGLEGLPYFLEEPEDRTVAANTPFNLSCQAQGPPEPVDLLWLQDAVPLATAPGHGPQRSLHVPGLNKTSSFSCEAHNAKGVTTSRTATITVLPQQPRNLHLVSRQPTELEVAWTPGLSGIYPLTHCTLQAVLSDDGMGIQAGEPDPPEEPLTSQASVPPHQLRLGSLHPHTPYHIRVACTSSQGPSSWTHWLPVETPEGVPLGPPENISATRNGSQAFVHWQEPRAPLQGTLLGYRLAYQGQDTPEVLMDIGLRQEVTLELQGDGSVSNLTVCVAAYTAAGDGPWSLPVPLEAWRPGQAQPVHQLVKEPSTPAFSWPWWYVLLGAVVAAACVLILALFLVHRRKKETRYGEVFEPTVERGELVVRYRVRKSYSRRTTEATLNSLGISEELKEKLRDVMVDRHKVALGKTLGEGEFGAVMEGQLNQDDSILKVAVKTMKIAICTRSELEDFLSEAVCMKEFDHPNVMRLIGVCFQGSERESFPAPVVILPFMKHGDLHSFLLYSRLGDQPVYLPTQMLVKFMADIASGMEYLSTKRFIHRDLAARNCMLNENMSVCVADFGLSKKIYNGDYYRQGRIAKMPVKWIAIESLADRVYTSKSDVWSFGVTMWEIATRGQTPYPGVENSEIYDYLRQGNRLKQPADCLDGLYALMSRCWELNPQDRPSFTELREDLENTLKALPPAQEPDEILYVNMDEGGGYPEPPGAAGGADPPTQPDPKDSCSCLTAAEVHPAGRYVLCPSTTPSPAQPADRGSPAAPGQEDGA
Procedure, shortened: as §1

Row | IC50 [1] [nM] | FLT3/Mer ratio (FLT3 IC50/Mer IC50) [1] | IC50 [2] [nM] | Structure (SMILES)
1 | ≤ 100 | +++ (“+++” represents a ratio of >100) | ≤ 100 | COC[C@H](C)Nc1ncc2c(-c3ccnc(C)c3)cc(C3CCC4(CC3)NC(=O)NC4=O)n2n1 (mixture of isomers) [Compound 325, (S)-8-(2-((1-methoxypropan-2-yl)amino)-5-(2-methylpyridin-4-yl)pyrrolo[2,1-f][1,2,4]triazin-7-yl)-1,3-diazaspiro[4.5]decane-2,4-dione]
2 | ≤ 100 | +++ (“+++” represents a ratio of >100) | ≤ 100 | CCCCC[C@H](C)Nc1ncc2c(N3CCNCC3)cc([C@H]3CC[C@H](O)CC3)n2n1 [Compound 114]
3 | ≤ 100 | +++ (“+++” represents a ratio of >100) | ≤ 100 | CCCCC[C@H](C)Nc1ncc2c(C3CCNCC3)cc([C@H]3CC[C@H](O)CC3)n2n1 [Compound 116, (1S,4r)-4-(2-((S)-heptan-2-ylamino)-5-(piperidin-4-yl)pyrrolo[2,1-f][1,2,4]triazin-7-yl)cyclohexanol hydrochloride]
4 | ≤ 100 | +++ (“+++” represents a ratio of >100) | 100 to 1000 | CCCCC[C@H](C)Nc1ncc2c(N3CCC(C(=O)O)CC3)cc([C@H]3CC[C@H](O)CC3)n2n1 [Compound 117]
5 | ≤ 100 | +++ (“+++” represents a ratio of >100) | 100 to 1000 | CNS(=O)(=O)c1cncc(-c2cc([C@H]3CC[C@H](O)CC3)n3nc(N[C@@H](C)COC)ncc23)c1 [Compound 272]
6 | ≤ 100 | +++ (“+++” represents a ratio of >100) | ≤ 100 | CC(CC(F)(F)F)Nc1ncc2c(-c3cncc(S(C)(=O)=O)c3)cc(C3CCC(O)CC3)n2n1 (stereo not drawn) [Compound 273]
7 | ≤ 100 | +++ (“+++” represents a ratio of >100) | ≤ 100 | COCCn1cc(-c2cc([C@H]3CC[C@H](O)CC3)n3nc(N[C@@H](C)COC(F)F)ncc23)cn1 [Compound 274]
8 | ≤ 100 | +++ (“+++” represents a ratio of >100) | ≤ 100 | CNS(=O)(=O)c1cncc(-c2cc([C@H]3CC[C@H](O)CC3)n3nc(N[C@@H](C)COC(F)F)ncc23)c1 [Compound 275]
9 | ≤ 100 | +++ (“+++” represents a ratio of >100) | ≤ 100 | C[C@@H](CC(F)(F)F)Nc1ncc2c(-c3cn[nH]c3)cc([C@H]3CC[C@H](O)CC3)n2n1 [Compound 276]
10 | ≤ 100 | +++ (“+++” represents a ratio of >100) | ≤ 100 | COC[C@H](C)Nc1ncc2c(-c3cnn(Cc4nnc(C)o4)c3)cc([C@H]3CC[C@H](O)CC3)n2n1 [Compound 277]
11 | ≤ 100 | +++ (“+++” represents a ratio of >100) | ≤ 100 | CNS(=O)(=O)c1cncc(-c2cc([C@H]3CC[C@H](O)CC3)n3nc(N[C@@H](C)CC(F)(F)F)ncc23)c1 [Compound 278]
12 | ≤ 100 | +++ (“+++” represents a ratio of >100) | ≤ 100 | COC[C@H](C)Nc1ncc2c(-c3ccc(S(C)(=O)=O)nc3)cc([C@H]3CC[C@H](O)CC3)n2n1 [Compound 279]
13 | ≤ 100 | +++ (“+++” represents a ratio of >100) | ≤ 100 | COC[C@H](C)Nc1ncc2c(-c3cnn(CCS(C)(=O)=O)c3)cc([C@H]3CC[C@H](O)CC3)n2n1 [Compound 280]
14 | ≤ 100 | +++ (“+++” represents a ratio of >100) | ≤ 100 | COC[C@H](C)Nc1ncc2c(-c3cnn(Cc4ccnnc4)c3)cc([C@H]3CC[C@H](O)CC3)n2n1 [Compound 281]
15 | ≤ 100 | +++ (“+++” represents a ratio of >100) | ≤ 100 | COC[C@H](C)Nc1ncc2c(-c3cnn(C(C)(C)C(=O)N4CCOCC4)c3)cc([C@H]3CC[C@H](O)CC3)n2n1 [Compound 282]
16 | ≤ 100 | +++ (“+++” represents a ratio of >100) | ≤ 100 | COC[C@H](C)Nc1ncc2c(-c3cnn(C(C)(C)C(=O)N4CCC4)c3)cc([C@H]3CC[C@H](O)CC3)n2n1 [Compound 283]
17 | ≤ 100 | +++ (“+++” represents a ratio of >100) | 100 to 1000 | COC[C@H](C)Nc1ncc2c(-c3cnn(C(C)(C)C(=O)O)c3)cc([C@H]3CC[C@H](O)CC3)n2n1 [Compound 284]
18 | ≤ 100 | +++ (“+++” represents a ratio of >100) | ≤ 100 | COC[C@H](C)Nc1ncc2c(-c3cnn(Cc4noc(C)n4)c3)cc([C@H]3CC[C@H](O)CC3)n2n1 [Compound 285]
19 | ≤ 100 | +++ (“+++” represents a ratio of >100) | ≤ 100 | COC[C@H](C)Nc1ncc2c(-c3cnn(C4CN(C(C)=O)C4)c3)cc([C@H]3CC[C@H](O)CC3)n2n1 [Compound 286]
20 | ≤ 100 | +++ (“+++” represents a ratio of >100) | ≤ 100 | COC[C@H](C)Nc1ncc2c(-c3cnn(C4CC(S(C)(=O)=O)C4)c3)cc([C@H]3CC[C@H](O)CC3)n2n1 (stereo partly drawn) [Compound 287]

Row | Structure (SMILES) | IC50 [1] [nM] | FLT3/Mer ratio (FLT3 IC50/Mer IC50) [1] | IC50 [2] [nM]
21 | CCCCC[C@H](C)Nc1ncc2c(C3=CC[C@@H](C(=O)N4CCOCC4)CC3)cc([C@H]3CC[C@H](O)CC3)n2n1 [Compound 113] | ≤ 100 | ++ (“++” represents a ratio of between 10 and 100) | ≤ 100
22 | CCCCC[C@H](C)Nc1ncc2c(N3CCC(N(C)C)CC3)cc(C3CCC(O)CC3)n2n1.Cl (stereo partly drawn) [Compound 115, 4-[5-[4-(dimethylamino)-1-piperidyl]-2-[[(1S)-1-methylhexyl]amino]pyrrolo[2,1-f][1,2,4]triazin-7-yl]cyclohexanol hydrochloride] | ≤ 100 | ++ (“++” represents a ratio of between 10 and 100) | 100 to 1000
23 | CC[C@H](C)Nc1ncc2c(-c3ccc(CN4CCN(C)CC4)cc3)cc([C@H]3CC[C@H](O)CC3)n2n1 [Compound 118] | ≤ 100 | ++ (“++” represents a ratio of between 10 and 100) | ≤ 100
24 | C[C@@H](CC(F)(F)F)Nc1ncc2c(-c3cnn(CCS(C)(=O)=O)c3)cc([C@H]3CC[C@H](O)CC3)n2n1 [Compound 288] | ≤ 100 | ++ (“++” represents a ratio of between 10 and 100) | ≤ 100
25 | C[C@@H](CC(F)(F)F)Nc1ncc2c(-c3cnn([C@@H]4CCOC4)c3)cc([C@H]3CC[C@H](O)CC3)n2n1 [Compound 289] | ≤ 100 | + (“+” represents a ratio of >2.0 and <10) | ≤ 100

Source: US11040981B2, “Pyrrolotriazine compounds and methods of inhibiting TAM kinases” (Syros Pharmaceuticals, Inc., priority 2017, dated 2021)
